Reference: patent US10039741B2, “Use of delta tocopherol for the treatment of lysosomal storage disorders” (The United States of America, as represented by the …, priority 2010, dated 2018)
“Also recorded” adds a separate entry of the source.

Key:
Format in all cases: cell-based, human
wild type cells = assay: Lipid measurement by mass spectrometry (GC/MS)
Experimental: (§1) Effects of δ-tocopherol and α-tocopherols on (FIG. 4A) free cholesterol, (FIG. 4B) cholesterol ester and (FIG. 4C) sphingomyelin in NPC cells. NPC or WT cells were treated with DMSO, 80 μM α-tocopherol or 40 uM δ-tocopherol for 5 days. Cell pellets were collected and extracted for lipids. FC EC and sphingomyelin levels were measured by GC/MS. (FIG. 4D) Effects of δ-tocopherols and α-tocopherols on cholesterol efflux.
(§2) Cell pellets were collected from 100-mm dishes and washed once with 10 ml PBS. Proteins were assayed using the BCA kit (Sigma-Aldrich) and lipids were extracted by modified Bligh and Dyer procedure (29) from the cells. Internal standards were added based on protein concentration that included N12:0 sphingomyelin, D7-cholesterol, 17:0 cholesterol ester (Avanti Polar Lipids, Inc). A portion of the lipid extract was used for detection of sphingomyelins using direct infusion mass spectrometric assay with lithium hydroxide for facilitating ionization and the rest was used to convert cholesterol and its ester into acetate by derivatization. The derivatization was performed by treating the dried crude lipid extract with solutions of 1 M acetic acid with 1 M DMAP in chloroform and 1 M EDC in chloroform at 50° C. for 2 hours. The derivatized product was extracted with hexane and analyzed by direct infusion mass spectrometric assay with 5% ammonium hydroxide for facilitating ionization.
(§3) A triple-quadrupole mass spectrometer equipped with an electrospray was used for analysis of lipids in positive mode. Sphingomyelins, cholesterol and cholesterol esters were detected by neutral loss scan of 213 (collision energy: 50 V), neutral loss scan of 77 (collision energy: 14 V) and precursor ion scan of m/z 369 (collision energy: 14 V) respectively. Data processing of mass spectrometric analyses including ion peak selection, data transferring, peak intensity comparison and quantitation was conducted using self-programmed Microsoft Excel macros (30).

NPC fibroblasts = assay: Lipid measurement by mass spectrometry (GC/MS); conditions: 80 μM α-tocopherol or 40 uM δ-tocopherol for 5 days
Experimental: as §1, §2, §3

[1] = system: Farber disease fibroblasts; assay: Lysotracker staining assay
NPCD fibroblasts = assay: Filipin cholesterol staining assay; conditions: NPCD patient cells
Experimental: Filipin dye staining was used to determine the level of free cholesterol accumulation in cells (27, 28). Cells were seeded at 1000 cells/well in 100 μl medium in the black/clear bottom, tissue culture treated 96-well plates (Greiner Bio-One, Monroe, N.C.) for culture overnight or in a designated time. The cells were washed twice with the HBBS buffer and fixed with 100 μl/well 3.2% formaldehyde at room temperature for 30 minutes. After three times of plate wash with PBS buffer, cells were stained with 50 μg/ml filipin, which was freshly-dissolved in DMSO at 10 mg/ml and then diluted in PBS buffer. Samples were then washed twice with PBS buffer and stored in 4° C. On the day of imaging, cells were stained with 2 μM of CellMask Red (Invitrogen, H32711) in PBS at room temperature for 1 h. Samples were viewed and photographed using a Nikon Eclipse Ti microscope with a 20× objective equipped with CCD camera. DAPI filter and TRITC filter were used to visualize filipin and CellMask Red, respectively. The images were processed by Adobe Photoshop.

[2] = system: NPC patient-derived skin fibroblasts; assay: Amplex red cholesterol assay (free cholesterol)
Source text: Free cholesterol accumulation in cells is a hallmark of NPC disease. The Amplex red cholesterol assay was used to screen an approved drug library in the NPC patient-derived skin fibroblasts that have free cholesterol accumulation in late endosome and lysosome. […] We then show δ-tocopherol in the filipin cholesterol staining assay, a method used clinically for NPCD diagnosis. […] Lysosome size is usually enlarged in the NPCD cells using a lysotracker staining assay.
The free cholesterol level in these cells was then measured by a cholesterol oxidase coupled HRP/amplex red detection method with a commercial available kit (Invitrogen). The cells were seeded to black, tissue culture-treated 1536-well plates (Greiner Bio-One, Monroe, N.C.) at 800 cells/well in 5 μl medium by a Multidrop Combi dispenser (Thermo Scientific, Waltham, Mass.) and cultured for 24 hours. The assay plates were added with 23 nl/well of compound DMSO solution using a pintool station (Kalypsys, San Diego, Calif.) and cultured for 3 days. The 1536-well assay plate was washed by a plate-inverted centrifugation method that removing medium by centrifuging plates upside down against a stack of paper towel at 1000 rpm for 1 min followed by addition of 7 μl/well PBS buffer, repeating for two times. The PBS buffer was added with a 45 degree angled dispenser (Kalypsys) or a Multi-Drop Combi dispenser set at medium speed to reduce disturbance to the cells. After the cell wash, 2.5 μl/well of detection mixture from the kit was added followed by 1 hour incubation at 37° C. With the addition of the detection mixture, the cells were lysed by the detergent containing buffer and free cholesterols in cell lysate were oxidized by cholesterol oxidase to produce H2O2 which reacting with amplex red dye in the presence of horseradish peroxidase to yield red fluorescence signal. A ViewLux plate reader (PerkinElmer, Boston, Mass.) was used to measure the fluorescent signal in assay plates with the excitation of 573 nm and emissions of 610 nm.

[3] = wild type cells, 80 μM α-tocopherol or 40 uM δ-tocopherol for 5 days
[4] = 9 additional fibroblast primary cells from different NPCD patients

## Cc1cc(O)cc2c1O[C@](C)(CCC[C@H](C)CCC[C@H](C)CCCC(C)C)CC2 [δ-tocopherol]
Wild type cells; normal (WT) cells, 5 days
  free cholesterol level: reduced slightly
Wild type cells; [3]
  amount of cholesterol ester: significantly reduced
  sphingomyelin amount: not significantly changed
NPC fibroblasts; NPCD cells
  amount of cholesterol ester: significantly reduced
  sphingomyelin amount: not significantly changed
NPC fibroblasts; NPCD fibroblasts
  free cholesterol level: nearly recovered to the normal level as in the wild type cells
[1]
  size of enlarged lysosomes: significantly reduced
NPCD fibroblasts
  free cholesterol accumulation (filipin staining): significantly reduced
[2]; [4]
  effect compared with α-tocopherol: more potent than that of α-tocopherol
  effect on cholesterol reduction: confirmed
[2]; NPCD fibroblasts
  cholesterol amount (cholesterol reduction): significantly reduced
[2]; free cholesterol amount, filipin staining, lysotracker staining, NPCD fibroblasts
  potency compared with the other vitamin E isoforms: most potent of the eight isoforms of vitamin E; also recorded: more significant and potent than any of the other vitamin E isoforms
[2]; δ-tocopherol at 40 μM, NPC fibroblasts
  effect compared with α-tocopherol: more potent than α-tocopherol at 80 μM
